Test results from patent publication US10251861B2, “Methods for treating burn and scar injury using tocotrienol compositions” (Ohio State Innovation Foundation, priority 2012, dated 2019).

What was measured:
[1] = system: NF-KB activation; settings: cited from earlier work; for tumor necrosis factor a (TNF-a)-induced NF-KB activation: similar dose of both compounds
[2] = system: IKBa kinase (IKK); settings: cited from earlier work
[3] = system: Akt; settings: cited from earlier work
[4] = per day; Food and Nutrition Board of the Institute of Medicine; also printed as 1,500 IU; cited from earlier work
[5] = system: burn-induced scar; assay: Burn-induced scar outcome after topical tocotrienol (FIG. 1); format: in vivo; settings: topical treatment vs placebo; 65 days after burn injury; n=8; p<0.05
Experimental: (§1) FIG. 1A-FIG. 1D. Topical vitamin E alpha-tocotrienol improves scar outcome. Alpha-tocotrienol content and scar outcomes were assessed in skin 65 days after burn injury. Representative placebo and T3-treated burn scars depicted (A) (scale bar=1 cm). […] Color (C) and contour (D) were judged by blinded reviewers according to their respective 5-point scales. […] Data are mean+SD (n=8); *p<0.05.

[6] = Alpha-tocotrienol content in burn scar tissue (FIG. 1B); format: in vivo; settings: topical treatment vs placebo; skin 65 days after burn injury; n=8; p<0.05
Experimental: as §1

[7] = Ongoing IRB protocol 200500034, oral TCT supplementation before surgery; format: in vivo, human
Experimental: In this protocol, patients are being supplemented 200 mg TCT twice a day for a minimum of 4 weeks prior to surgery. The maximum supplementation has been for over a year (currently on-going supplementation)
(§2) The inventors have also observed that oral supplementation in animals results in enhancement of tocotrienol in tissues such as skin, brain, lung etc. Levels of tocotrienol in human tissues following supplementation is currently being investigated by the inventors' laboratory (IRB protocol 200500034). The patients in the inventors' ongoing study are being orally supplemented with 200 mg twice a day. Recently, pharmacokinetic studies have been performed where humans have been orally supplemented with tocotrienol (dose: 692 mg). Based on this work and the inventors' current study, the inventors plan to use (200×2=400 mg/day; note that for alpha-tocopherol 1 mg=1.51 U) for the inventors' study.
In this protocol, patients are being supplemented 200 mg TCT twice a day for a minimum of 4 weeks prior to surgery.
In this protocol, patients are being supplemented 200 mg TCT twice a day for a minimum of 4 weeks prior to surgery. The maximum supplementation has been for over a year (currently on-going supplementation).

[8] = Oral tocotrienol supplementation in animals, tissue levels; format: in vivo
Experimental: as §2

[9] = system: IL-1 and IL-6 in serum; settings: treated rats; vs before nicotine and tocotrienol treatment; cited from earlier work
[10] = system: adhesion molecules (ICAM, VCAM, and E-selectin); settings: compared among forms of vitamin E; cited from earlier work
[11] = biological target: T1, HMG-CoA reductase (Homo sapiens, UniProt P04035); settings: micromolar amounts; cited from earlier work
T1 sequence (P04035 1-888): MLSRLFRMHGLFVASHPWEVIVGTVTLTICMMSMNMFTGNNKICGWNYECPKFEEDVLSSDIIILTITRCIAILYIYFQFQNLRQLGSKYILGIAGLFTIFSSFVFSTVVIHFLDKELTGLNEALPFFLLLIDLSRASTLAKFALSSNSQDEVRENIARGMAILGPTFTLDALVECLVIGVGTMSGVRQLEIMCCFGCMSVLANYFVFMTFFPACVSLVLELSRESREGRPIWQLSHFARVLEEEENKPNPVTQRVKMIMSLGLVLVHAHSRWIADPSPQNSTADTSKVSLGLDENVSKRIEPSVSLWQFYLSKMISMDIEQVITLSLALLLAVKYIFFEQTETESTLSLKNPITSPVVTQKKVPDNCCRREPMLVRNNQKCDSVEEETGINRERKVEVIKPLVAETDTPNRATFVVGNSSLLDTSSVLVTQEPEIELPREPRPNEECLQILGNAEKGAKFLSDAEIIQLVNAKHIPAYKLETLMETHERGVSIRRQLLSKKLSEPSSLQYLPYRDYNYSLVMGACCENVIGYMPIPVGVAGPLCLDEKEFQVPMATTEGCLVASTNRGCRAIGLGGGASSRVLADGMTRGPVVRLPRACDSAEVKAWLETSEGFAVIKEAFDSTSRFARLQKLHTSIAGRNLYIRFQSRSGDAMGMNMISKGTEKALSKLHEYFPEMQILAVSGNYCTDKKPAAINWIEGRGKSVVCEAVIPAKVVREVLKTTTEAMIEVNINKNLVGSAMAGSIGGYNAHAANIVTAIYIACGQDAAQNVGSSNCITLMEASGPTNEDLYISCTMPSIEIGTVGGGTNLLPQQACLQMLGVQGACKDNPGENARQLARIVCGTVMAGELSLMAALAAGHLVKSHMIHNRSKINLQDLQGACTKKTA

CC(C)=CCC/C(C)=C/CC/C(C)=C/CC[C@]1(C)CCc2cc(O)c(C)c(C)c2O1 [gamma-tocotrienol]
NF-KB activation induced by phorbol myristate acetate, okadaic acid, lipopolysaccharide, cigarette smoke, IL-1I, and epidermal growth factor [1]: abolished
TAK 1/TAB 1-induced NF-KB dependant reporter gene expression [1]: inhibit
constitutive NF-KB activation expressed by certain tumor cells [1]: nullified
tumor necrosis factor a (TNF-a)-induced NF-KB activation [1]: completely abolished
TNF-induced activation of IKBa kinase (IKK) [2]: inhibiting
TNF induced Akt activation [3]: inhibit

Cc1c(O)cc2c(c1C)O[C@](C)(CCC[C@H](C)CCC[C@H](C)CCCC(C)C)CC2 [gamma-tocopherol]
tumor necrosis factor a (TNF-a)-induced NF-KB activation [1]: no effect

Cc1c(C)c2c(c(C)c1O)CC[C@@](C)(CCC[C@H](C)CCC[C@H](C)CCCC(C)C)O2 [alpha-tocopherol]
upper tolerable intake level (UL) [4]: 1,000 mg

tocotrienol
scar color, 5-point scale, blinded reviewers [5]: significantly improved
scar contour, 5-point scale, blinded reviewers [5]: significantly improved
alpha-tocotrienol content in scar tissue [6]: significantly increased
related adverse effects ([7]; 200 mg TCT twice a day, minimum 4 weeks prior to surgery, maximum over a year): no related adverse affects
reaching the skin ([7]; oral dosage of 400 mg per day): sufficient to reach the skin
appearance of scars ([7]; pre-treatment with TCT, observations from ongoing study): Improves
tocotrienol in tissues such as skin, brain, lung [8]: enhancement
serum levels of IL-6 [9]: significantly lower
reducing endothelial expression of adhesion molecules and adhesion to monocytes [10]: most effective
activity of HMG-CoA reductase [11]: suppress
